Results published in US11584742B2 (MASARYKOVA UNIVERZITA, priority 2018, dated 2023).

Experiments:
MRE11 = target: T1, MRE11 (Homo sapiens, UniProt P49959); test: HTS nuclease assay (cleavage of CY5/BBQ-quenched 5' overhang DNA substrate); format: biochemical; conditions: in vitro HTS nuclease assay; 18 nM MRE11, 40 nM DNA substrate; analysis at t=4 h
T1 sequence (P49959 1-708): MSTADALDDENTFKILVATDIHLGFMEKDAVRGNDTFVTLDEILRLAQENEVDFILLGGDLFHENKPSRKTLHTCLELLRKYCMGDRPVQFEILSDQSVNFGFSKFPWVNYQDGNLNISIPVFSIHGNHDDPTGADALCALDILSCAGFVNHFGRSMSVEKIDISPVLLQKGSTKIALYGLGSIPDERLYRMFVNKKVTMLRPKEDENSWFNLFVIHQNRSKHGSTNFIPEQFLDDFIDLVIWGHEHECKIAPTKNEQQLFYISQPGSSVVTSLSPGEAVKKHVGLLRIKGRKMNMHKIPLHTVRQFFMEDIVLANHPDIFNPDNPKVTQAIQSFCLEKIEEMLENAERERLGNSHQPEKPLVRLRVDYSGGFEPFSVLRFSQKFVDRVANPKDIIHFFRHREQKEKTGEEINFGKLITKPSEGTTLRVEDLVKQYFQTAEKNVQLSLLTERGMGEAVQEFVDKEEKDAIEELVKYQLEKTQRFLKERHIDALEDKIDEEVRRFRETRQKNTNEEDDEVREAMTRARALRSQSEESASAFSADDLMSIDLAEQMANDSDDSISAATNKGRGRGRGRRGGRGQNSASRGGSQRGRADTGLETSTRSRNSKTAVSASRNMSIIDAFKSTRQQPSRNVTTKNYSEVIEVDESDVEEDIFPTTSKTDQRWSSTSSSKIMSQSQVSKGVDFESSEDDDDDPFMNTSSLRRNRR

DR-GFP U2OS cells = test: HR assay (GFP fluorescence after I-SceI transfection, flow cytometry); format: cell-based; conditions: Homo sapiens, inhibitor at 25 μM, 72 hours after transfection
Method: DR-GFP U2OS cells (Methods in Molecular Biology 2012, 920, 379.) were transfected with 2.5 μg of I-SceI-expressing pCAGGS vector and treated with the inhibitors at 25 μM concentration. 72 hours after the transfection, the cells were trypsinized and resuspended in 3% BSA in PBS. GFP fluorescence detection was carried out using a BD FACSVerse flow cytometer and data analyzed with FlowJo software.

[1] = test system: Phosphorylated RPA32 S4/S8 in U2OS cells; test: RPA assay (RPA phosphorylation after camptothecin); format: cell-based; conditions: Homo sapiens, U2OS cells pre-treated 1 h, then 1 uM camptothecin 1 h; for inhibition at 10 µM: inhibitor at 10 μM
Method: U2OS cells were pre-treated for 1 h with MRE11 inhibitors followed by addition of 1 uM camptothecin for 1 h. Cells were lysed in SDS-PAGE loading buffer, sonicated and boiled at 70° C. for 10 min. Equal amounts of protein (50-100 μg) were analysed by Tris-glycine gel electrophoresis Expression levels were quantified using Multi Gauge software and expressed relative to loading control. Phosphorylated RPA32 S4/S8 (A300-245A, Bethyl Laboratories) 1:1000 dilution was used.

SMILES | IC50 (MRE11) [nM] | inhibition at 25 µM (DR-GFP U2OS cells) [%] | inhibition at 25 µM ([1]; inhibitor at 25 μM) [%] | inhibition at 10 µM [1] [%]
COc1ccc(-c2csc(NC(=O)/C(C#N)=C/c3ccc(O)c(O)c3)n2)cn1 [Preparative Example 241, (E)-2-cyano-3-(3,4-dihydroxyphenyl)-N-(4-(6-methoxypyridin-3-yl)thiazol-2-yl)acrylamide] | < 2000 | < 50 | 75 | –
N#C/C(=C\c1cc(Cl)c(O)c(Cl)c1)C(=O)Nc1nc(-c2ccccn2)cs1 [Preparative Example 243, (E)-2-cyano-3-(3,5-dichloro-4-hydroxyphenyl)-N-(4-(pyridin-2-yl)thiazol-2-yl)acrylamide] | < 2000 | 50 to 75 | – | 100
N#C/C(=C\c1ccc(O)c([N+](=O)[O-])c1)C(=O)Nc1nc(-c2ccccc2)cs1 [Preparative Example 208, (E)-2-cyano-3-(4-hydroxy-3-nitrophenyl)-N-(4-phenylthiazol-2-yl)acrylamide] | 10000 to 90000 | 50 to 75 | – | –
COc1ccc(-c2csc(NC(=O)/C(C#N)=C/c3ccc(O)c(O)c3)n2)cc1 [Preparative Example 162, (E)-2-cyano-3-(3,4-dihydroxyphenyl)-N-(4-(4-methoxyphenyl)thiazol-2-yl)acrylamide] | < 2000 | > 75 | – | –
COc1cccnc1-c1csc(NC(=O)/C(C#N)=C/c2ccc(O)c(O)c2)n1 [Preparative Example 242, (E)-2-cyano-3-(3,4-dihydroxyphenyl)-N-(4-(3-methoxypyridin-2-yl)thiazol-2-yl)acrylamide] | < 2000 | > 75 | – | 95
N#C/C(=C\c1ccc(O)c(O)c1)C(=O)Nc1nc(-c2ccc(C#N)s2)cs1 [Preparative Example 183, (E)-2-cyano-N-(4-(5-cyanothiophen-2-yl)thiazol-2-yl)-3-(3,4-dihydroxyphenyl)acrylamide] | < 2000 | < 50 | – | –
